Test results reported in patent US9067913B2, “Fumigillol type compounds and methods of making and using same” (Zafgen, Inc., priority 2010, dated 2015).
pIC50: −log10 of the molar value. Marks after values point to notes of the source that are not given here.

Key:
[1] = target: T1, MetAP2 (Homo sapiens, UniProt P50579); experiment: MetAP2 enzyme assay; type: biochemical; settings: for inhibition at 0.05 µM: 50 nM; for inhibition at 0.2 µM: 200 nM
Protocol: Compound A was tested in a MetAP2 enzyme assay. Table 1 indicates the inhibition results for various concentrations: […]

[2] = target: T1, MetAP2; experiment: cell based assay, inhibition of MetAP2
Protocol: In a cell based assay, the inhibition of MetAP2 was <10 nM.

[3] = Example 4: body weight loss compared to vehicle, 3 mg/kg for 10 days; type: in vivo, C57BL/6 mice; settings: compared with compound (i) and compound (ii)
Protocol: 20 week old C57BL/6 mice on 60% kcal fat diet for 14 weeks treated with either 10% DMSO or the same vehicle containing an amount of drug to deliver a dose of 3 mg/kg of compound (ii) (as identified above), compound (i) [fumigillol], and compound A for 10 days. FIG. 3 indicates the body weight loss compared to vehicle for each compound.

[4] = test system: MetAP2; experiment: Example 4: testes biomarker, N-terminal peptide of mouse thioredoxin (SEQ ID NO. 1) by LC-MS/MS; type: in vivo; settings: 3 mg/kg for 10 days, testes harvested at end of study
From the text: At the end of the study testes from the mice were harvested, homogenized and digested with endoproteinase Glu-C.

[5] = Study A: 7 day screen, weight loss in mice on 45% kcal fat diet; type: in vivo, C57BL/6 mice
Protocol: Three studies were conducted using 18-20 week old C57BL/6 mice. Study A was a 7 day screen that included 18-20 week old C57BL/6 mice that were provided a 45% kcal fat diet for 14 weeks, and treated with either 10% Gelucire in water or the same vehicle containing an amount of compound A to deliver a dose of 1 mg/kg dosed daily for 7 days.

[6] = weight loss study in obese mice (high-fat diet induced), Example 2; type: in vivo, C57BL/6NTac mice; settings: 1.0 mg/kg in 10% gelucire in deionised water, once a day for 7 days, 60% fat diet
Protocol: A weight loss study was conducted in obese mice. The mice in this study were not genetically obese, but prior to and during the study, obesity was induced by a high-fat diet. Twelve week-old C57BL/6NTac mice, maintained on a 60% fat diet prior to and during the study, were separated into seven groups, eight animals per group. Average body weight of the mice was approximately 47 g at the start of the study.
Mice were administered 1.0 mg/kg of compound A in 10% gelucire in deionised water. Mice received administrations once a day for 7 days. The one week weight loss was 11.9%.

[7] = Study B: 10 day study, weight loss in mice on 60% kcal fat diet; type: in vivo, C57BL/6 mice; settings: PO 3 mg/kg, 10% DMSO
Protocol: Study B was a 10 day study that included 20 week old C57BL/6 mice on 60% kcal fat diet for 14 weeks treated with either 10% DMSO or the same vehicle containing an amount of drug to deliver a dose of 3 mg/kg of compound A for 10 days. FIG. 2 depicts the 7-day PO efficacy at 3 mg/kg of compound A.

[8] = Study C: 10 day study, weight loss in mice on 60% kcal fat diet; type: in vivo, C57BL/6 mice; settings: 10% DMSO
Protocol: Study C was a 10 day study that included 20 week old C57BL/6 mice on 60% kcal fat diet for 14 weeks treated with either 10% DMSO or the same vehicle containing an amount of drug to deliver an oral dose of 1 mg/kg or 3 mg/kg of the compound 6-O-(4-dimethylaminoethoxy)cinnamoyl fumagillol (dimethyl analogue) for 10 days.

T1 sequence (P50579 whole entry, species assumed): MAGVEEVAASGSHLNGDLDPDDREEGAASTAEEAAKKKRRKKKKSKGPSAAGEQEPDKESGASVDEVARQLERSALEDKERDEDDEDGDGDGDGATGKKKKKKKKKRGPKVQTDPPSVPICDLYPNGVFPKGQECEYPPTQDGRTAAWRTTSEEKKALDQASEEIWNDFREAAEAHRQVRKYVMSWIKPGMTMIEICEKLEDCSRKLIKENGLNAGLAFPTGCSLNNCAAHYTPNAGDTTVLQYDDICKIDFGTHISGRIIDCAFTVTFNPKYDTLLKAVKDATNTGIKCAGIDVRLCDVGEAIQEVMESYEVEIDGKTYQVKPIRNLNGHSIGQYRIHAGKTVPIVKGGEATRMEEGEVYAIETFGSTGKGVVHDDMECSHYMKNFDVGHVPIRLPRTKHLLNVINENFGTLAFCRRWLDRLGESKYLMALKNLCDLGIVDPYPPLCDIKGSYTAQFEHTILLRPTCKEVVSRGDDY

SMILES	inhibition at 0.05 µM ([1]; 1 hr)	inhibition at 0.2 µM ([1]; 1 hr)	inhibition at 0.05 µM ([1]; 2 hr)	inhibition at 0.2 µM ([1]; 2 hr)	inhibition at 0.05 µM ([1]; 4 hr)	inhibition at 0.2 µM ([1]; 4 hr)	pIC50 [2]	weight loss potency (FIG. 3) [3]	availability to the testes tissue (concentration of SEQ ID NO. 1, FIG. 4) [4]	weight loss at day 7 ([5]; PO 1 mg/kg daily, Study A, 10% Gelucire in water, 45% kcal fat diet)	potency dosed orally as compared to 6-O-(4-dimethylaminoethoxy)cinnamoyl fumagillol ([5]; day 7 weight loss, studies A, B, C compared)	one week weight loss [6]	weight loss at day 7 [7]	weight loss at day 7 ([8]; PO 1 mg/kg)	weight loss at day 7 ([8]; PO 3 mg/kg)
CCN(CC)CCOc1ccc(/C=C/C(=O)O[C@@H]2CC[C@]3(CO3)[C@@H]([C@@]3(C)O[C@@H]3CC=C(C)C)[C@@H]2OC)cc1 [Compound A]	42%	100%	45%	100%	71%	100%	> 8.00	comparable weight loss potency	not as available to the testes tissue as compared to the other tested compounds	12%^a	≥ 3 times	11.9%	13%^b		
CO[C@@H]1[C@H](OC(=O)C=Cc2ccc(OCCN(C)C)cc2)CC[C@]2(CO2)[C@H]1[C@@]1(C)O[C@@H]1CC=C(C)C [dimethyl analogue, 6-O-(4-dimethylaminoethoxy)cinnamoyl fumagillol]														1.1%^c	11%^c
